Entries after “also recorded” stand apart in the source; their conditions may differ.
Columns and labels:
[1] = system: p-AKT and p-ERK (PI3K and MAP Kinase pathways) in epithelial cells of bladder washes; assay: SCNP of bladder wash samples: p-AKT and p-ERK at baseline and after EGF +/- GDC-0941; format: cell-based, human
Method: Bladder washes from non-cancer (NC) patients (pts) (n=8) and confirmed/suspected bladder cancer (BC) pts (n=20) were collected using standard medical practice and shipped overnight on ice for processing within 24 hours. Antibodies against CD45, Cytokeratin (CK), and EpCAM were used to differentiate epithelial cells from leukocytes, while measurements of DNA aneuploidy (DAPI stain) allowed for distinction between tumor and normal epithelial cells. Signaling activity in the PI3K and MAP Kinase pathways was assessed by measuring intracellular levels of p-AKT and p-ERK both at baseline and in response to pathway modulation. A process similar to that shown in Example 1 was used.
(§1) Upon delivery, cells were pelleted, counted, rested for 1 hr at 37° C., followed by a 5 minute stimulation with EGF or vehicle+/−GDC-0941 200 nM added 1 hr prior to EGF addition to inhibit PI3K signaling After cell fixation and permeabilization, samples were stained with fluorophore-conjugated antibodies/DAPI cocktail, and the data acquired using multi-parametric flow cytometry. The epithelial bladder carcinoma cell line HT-1376 was used as a control for the epithelial phenotype and EGF signaling. A DNA index was determined using the lymphoid population in the pt samples as a diploid G0/G1 reference.

[2] = system: p-AKT and p-ERK in epithelial cells of pleural effusion; assay: SCNP of pleural effusion, patient MCSF-04 (non-small cell lung cancer): p-AKT and p-ERK; format: cell-based, human
Method: A procedure similar to that shown for Example 1 was performed. A pleural effusion was obtained from a patient (MCSF-04) with a diagnosis of non-small cell lung cancer with a white cell count of 21 million.
(§2) Purpose: (1) Evaluate ability to detect epithelial cells in the pleural effusion sample. (2) Measure DNA content to evaluate whether detected cells are possibly originating from the tumor (aneuploid). (3) measure basal level p-AKT and p-ERK signaling in epithelial cells. (4) Measure evoked signaling after EGF stimulation in the same cell populations. (5) Measure signaling inhibition when the EGF is added after incubation with a PI3K inhibitor (GDC-0941). (6) Culture cells in the presence and absence of EGF to observe possible growth promoting effects and to potentially characterize the signaling of cells that expand.
Gating Scheme: The epithelial phenotype is based on the cells being positive for EpCAM and Cytokeratin stains, while expressing low levels of CD45.
SCNP contour plots show signaling in the epithelial cell compartment only. […] EGF stimulation (5 min., 37° C.) activates the PI3K and Ras/MEK pathways which are measured by p-AKT and p-ERK respectively. Attenuation of the EGF→p-AKT induced signaling in the presence of GDC-0941.

[3] = system: p-AKT and p-ERK in epithelial cells of ascites fluid; assay: SCNP of ascites fluid, patient MCSF-02 (biliary cancer): p-AKT and p-ERK; format: cell-based, human
Method: A procedure similar to that shown for Example 5 was performed. Ascites fluid was obtained from a patient (MCSF-02) with a diagnosis of biliary cancer with a white cell count of 4.3 million. This example has the same purpose as Example 5 as applied to ascites fluid.
Gating Scheme: The epithelial phenotype is based on the cells being positive for EpCAM and cytokeratin, while expressing low levels of CD45. Positive staining for cleaved PARP (c-PARP) indicates apoptosis. DNA index: The DNA index of the epithelial cells is based on the DNA content of the cells in the epithelial gate divided by the DNA content of the lymphocytes.
The biliary specimen contained 0.17% epithelial cells that were mostly non-apoptotic. This small percentage equates to ˜10 cells/condition. From this small population EGF induced p-AKT signaling was observed. A 9-fold increase in p-AKT levels were observed after […]. EGF stimulation. Induced signaling was attenuated with a 1 hour pre-incubation with 200 nM GDC-0941 (“GDC”). […] This is in contrast to the control cell line.

[4] = system: p-AKT and p-ERK in epithelial cells of pleural effusion; assay: SCNP of pleural effusion, patient MCSF-06 (non-small cell lung cancer): p-Akt and p-ERK; format: cell-based, human
Method: A procedure similar to that shown for Example 5 was performed. A pleural effusion was obtained from a patient (MCSF-06) with a diagnosis of non-small cell lung cancer with a white cell count of 6.8 million. This example has the same Purpose as Example 5 as applied to lung cancer. The HT-1376 epithelial bladder cancer cell line served as a positive control for EGF induced signaling.
SCNP contour plots identify p-Akt and p-ERK signaling in the epithelial cell compartment only. […] EGF stimulation (5 min., 37° C.) activates the PI3K and Ras/MEK pathways which are measured by p-Akt and p-ERK respectively. […] Median fluorescent values of p-Akt and p-ERK under each treatment condition (see FIG. 5). The control cell line was processed in parallel with the patient sample.

[5] = system: p-AKT and p-ERK in epithelial cells of pleural effusion; assay: SCNP of pleural effusion, patient MCSF-015 (non-small cell lung cancer): p-AKT and p-ERK; format: cell-based, human
Method: A procedure similar to that shown for Example 5 was performed. A pleural effusion was obtained from a patient (MCSF-015) with a diagnosis of non-small cell lung cancer with a white cell count of 150 million.
The HT-1376 epithelial bladder cancer cell line served as a positive control for EGF induced signaling. The control cell line was processed in parallel with the patient sample.
SCNP contour plots identify p-AKT and p-ERK signaling in the epithelial cell compartment only. […] EGF stimulation (5 min., 37° C.) activates the PI3K and Ras/MEK pathways which are measured by p-Akt and p-ERK respectively. […] Median fluorescent values of p-AKT and p-ERK under each treatment condition.

[6] = system: EGF signaling in epithelial cells of ascites or pleural effusion samples; assay: Summary of SCNP analysis of ascites or pleural effusion samples; format: cell-based, human
Source text: This analysis identified epithelial cells with inducible EGF signaling in ⅘ ascites or pleural effusion samples. In each of the 4 positive cases, induced signaling was inhibited by the PI3K inhibitor, GDC-0941.

MDS patients = settings: cited from earlier work
HT-1376 cells = assay: HT-1376 bladder cancer cells spiked into whole blood, EGF-induced pAKT and pERK; format: cell-based; settings: HT-1376 in whole blood; 200 ng/mL EGF for 5 minutes at 37° C.
Method: A procedure similar to that shown for Example 1 was performed.
Two aliquots of 1 million cells from a bladder cancer cell line, HT-1376, were spiked into 4 mls of whole blood in an effort to determine a lower limit of detection for bladder cancer cells in blood. The epithelial cell line, HT-1376 (ATCC #CRL-1472), which has high (positive) levels of cytokeratin, low (positive) levels for EpCAM, and negative for CD45. One aliquot was preincubated with PI3K inhibitor GDC-0941 at 10 uM and another was modulated with 200 ng/mL EGF for 5 minutes at 37° C. Another aliquot of whole blood contained no HT-1376 cells or other reagents. BD phosflow fix/lyse reagent was used followed by methanol. EGF was used as a modulator to induce pAKT and pERK responses, 9.4 and 3.7 fold responses respectively.

pleural effusion cells = assay: Culture of pleural effusion cells (MCSF-04) in presence and absence of EGF; format: cell-based, human
Method: as §2
Cells in culture: 1 million cells were plated in two wells of a 24-well plate in the presence and absence of EGF. The cells visually appeared healthy after 48 hrs in culture with some cells with elongated appearance like an epithelial cells. Some very large round cells were also observed. At day 8, both cultures had adherent and non-adherent cells. Counts were performed. The well without EGF contained 400,000 viable, non-adherent cells while the well in the presence +EGF contained 800,000. The patient specimen contained 15.87% epithelial cells that were mostly non-apoptotic. The DNA index is 1.37 indicating the epithelial cells are aneuploid.

HT-1376 cell line = assay: Control cell line HT-1376 processed with the ascites sample, EGF-induced p-Erk; format: cell-based; settings: HT-1376 control cell line
Method: as §1
The cell line control has what appears to be a lower basal p-ERK level, however one must be careful when comparing absolute fluorescent levels between different cell types (ie, cell line vs primary cells) due to differences in autofluoresence and degree of non-specific antibody binding. […] The DNA index is near 1.0 indicating these cells are not aneuploid.

## CS(=O)(=O)N1CCN(Cc2cc3nc(-c4cccc5[nH]ncc45)nc(N4CCOCC4)c3s2)CC1 [GDC-0941]
[1]; BC samples, GDC-0941 200 nM added 1 hr prior to EGF
  prevention of EGF-induced p-AKT and p-ERK signaling: preventable
[2]; MCSF-04 epithelial cells, EGF added after incubation with GDC-0941
  effect on EGF-induced p-AKT signaling: attenuated; also recorded: Attenuation
[2]; MCSF-04 epithelial cells, GDC-0941 incubation
  effect on basal p-AKT signaling: attenuated
[3]; MCSF-02, 200 nM GDC-0941
  effect on basal (unstim) p-AKT level: inability of the PI3K inhibitor to decrease p-AKT beyond the basal
[3]; MCSF-02, 1 hour pre-incubation with 200 nM GDC-0941
  effect on EGF-induced p-AKT signaling: attenuated
[3]; MCSF-02 epithelial cells
  basal p-ERK, unstimulated condition versus GDC containing sample: higher than the GDC containing sample
[4]; MCSF-06 epithelial cells
  effect on EGF-induced p-Akt signaling: Attenuation; also recorded: attenuated
  effect on basal p-Akt signaling: attenuated
  effect on p-ERK signaling: but not the p-ERK signaling
[5]; MCSF-015 epithelial cells
  effect on EGF-induced p-Akt signaling: Attenuation; also recorded: attenuated
  effect on basal p-Akt signaling: attenuated
  effect on p-ERK signaling: but not the p-ERK signaling
[6]; each of the 4 positive ascites or pleural effusion cases
  effect on EGF-induced signaling in the positive samples: inhibited

## CCOC(=O)[C@@H](N)CCC(=O)N[C@@H](CSCc1ccccc1)C(=O)N[C@@H](C(=O)OCC)c1ccccc1 [TLK-199]
MDS patients
  hematologic response in trial: hematologic improvement in all three hematopoietic lineages
  toxicities in trial: limited to infusion reactions, nausea, chills and bone pain

## EGF: Epidermal growth factor, growth factor used as modulator to induce p-AKT and p-ERK
[1]; 3/10 BC evaluable bladder wash samples, 5 minute stimulation with EGF
  EGF-induced p-AKT and p-ERK signaling, increase over baseline: 2-3 fold
[1]; non-cancer (NC) bladder wash specimens, 5 minute stimulation with EGF
  EGF-induced signaling in NC specimens: no EGF-induced signaling was observed
HT-1376 cells
  EGF-induced pAKT response: 9.4 fold
  EGF-induced pERK response: 3.7 fold
[2]; MCSF-04 pleural effusion, EGF 5 min., 37° C.
  EGF induction of p-AKT and p-ERK in epithelial cells: strong
Pleural effusion cells; 1 million cells plated, 24-well plate, presence of EGF (well without EGF 400,000)
  viable, non-adherent cells per well at day 8: 800,000 cells
Pleural effusion cells; MCSF-04 cells, EGF induced condition
  proliferation in culture: Proliferation was observed
[3]; MCSF-02 ascites
  EGF induction of p-AKT in epithelial cells: strong
  EGF induction of p-Erk in epithelial cells: no significant increase above baseline; also recorded: no p-Erk induction above baseline was detected
[3]; MCSF-02 ascites epithelial cells, 10 mins. EGF stimulation
  increase in p-AKT levels after EGF stimulation: 9 fold
HT-1376 cell line
  EGF induction of p-Erk in control cell line: observed
[4]; MCSF-06, EGF 5 min., 37° C.
  EGF induction, above basal signaling, of p-Akt and p-ERK in epithelial cells: strong
[5]; MCSF-015, EGF 5 min., 37° C.
  EGF induction, above basal signaling, of p-Akt and p-ERK in epithelial cells: strong
[6]; ascites or pleural effusion samples
  samples in which epithelial cells with inducible EGF signaling were identified: ⅘

— patent US20130129681A1, “METHODS FOR DIAGNOSING SOLID TUMORS” (NODALITY, INC., priority 2011, published 2013)
